Measured values taken from ChEMBL document CHEMBL3352762 (J Med Chem, 2014).
Activity calls are given as the source filed them. The rule behind the calls is not given here.

Assays:
[1] = Stability in 25% fetal calf serum assessed as parent compound remaining at 80 uM at 37 degC after 36 hrs by RP-HPLC-UV based detection assay; type: ADME, Bos taurus; conditions: cattle, read-out: Stability
[2] = molecular target: T1, Urotensin-2 receptor (Rattus norvegicus) (UniProt P49684); experiment: Competitive antagonist activity at UT receptor in rat aorta assessed as effect on urotensin-2-induced contraction; type: tissue-based
T1 sequence (whole entry): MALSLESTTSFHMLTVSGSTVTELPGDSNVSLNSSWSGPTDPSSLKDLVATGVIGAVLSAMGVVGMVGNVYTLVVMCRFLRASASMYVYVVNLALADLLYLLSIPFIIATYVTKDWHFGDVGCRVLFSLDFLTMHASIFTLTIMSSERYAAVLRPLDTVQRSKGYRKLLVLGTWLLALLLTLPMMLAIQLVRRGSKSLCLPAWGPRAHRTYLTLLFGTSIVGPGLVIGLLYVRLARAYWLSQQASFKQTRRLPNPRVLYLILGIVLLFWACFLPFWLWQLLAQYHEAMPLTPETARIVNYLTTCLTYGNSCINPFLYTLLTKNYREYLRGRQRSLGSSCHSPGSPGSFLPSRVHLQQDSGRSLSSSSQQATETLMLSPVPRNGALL

Urotensin-2 receptor = molecular target: T2, Urotensin-2 receptor (Homo sapiens, UniProt Q9UKP6); experiment: Displacement of [125I]urotensin-2 from human recombinant UT receptor expressed in CHO-K1 cells by scintillation counting method; type: cell-based
T2 sequence (Q9UKP6 whole entry): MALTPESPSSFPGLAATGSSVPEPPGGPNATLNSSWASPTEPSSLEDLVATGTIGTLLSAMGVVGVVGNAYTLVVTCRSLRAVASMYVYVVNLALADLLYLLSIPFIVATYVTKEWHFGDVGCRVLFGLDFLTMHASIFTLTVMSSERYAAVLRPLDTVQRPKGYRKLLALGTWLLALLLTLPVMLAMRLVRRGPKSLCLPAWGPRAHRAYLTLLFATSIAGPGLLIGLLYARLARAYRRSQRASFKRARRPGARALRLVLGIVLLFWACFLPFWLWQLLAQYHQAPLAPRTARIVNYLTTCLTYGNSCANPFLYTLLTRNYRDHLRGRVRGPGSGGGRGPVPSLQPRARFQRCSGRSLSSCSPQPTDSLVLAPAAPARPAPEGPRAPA

[3] = molecular target: T3, Urotensin-2 receptor (Homo sapiens) (UniProt Q9UKP6); experiment: Partial agonist activity at human recombinant UT receptor expressed in CHO-K1 cells assessed as stimulation of intracellular calcium mobilization at 10 uM by FLIPR assay relative to urotensin-2; type: functional, cell-based
T3 sequence (whole entry): T2 sequence (Q9UKP6 whole entry)

[4] = molecular target: T3, Urotensin-2 receptor (Homo sapiens); experiment: Partial agonist activity at human recombinant UT receptor expressed in CHO-K1 cells assessed as stimulation of intracellular calcium mobilization at 1 uM by FLIPR assay relative to urotensin-2; type: functional, cell-based
[5] = molecular target: T1, Urotensin-2 receptor (Rattus norvegicus); experiment: Agonist activity at UT receptor in rat aorta assessed as contraction relative to urotensin-2; type: tissue-based
[6] = Stability in 25% fetal calf serum assessed as parent compound remaining at 80 uM at 37 degC after 16 hrs by RP-HPLC-UV based detection assay; type: ADME, Bos taurus; conditions: cattle, read-out: Stability
[7] = molecular target: T3, Urotensin-2 receptor (Homo sapiens); experiment: Partial agonist activity at human recombinant UT receptor expressed in CHO-K1 cells assessed as stimulation of intracellular calcium mobilization by FLIPR assay; type: functional, cell-based
[8] = molecular target: T1, Urotensin-2 receptor (Rattus norvegicus); experiment: Agonist activity at UT receptor in rat aorta assessed as contraction; type: tissue-based

remaining at 36 h, 80 µM [1]: > 50%
pKb [2]: 8.15
Ki (Urotensin-2 receptor): 12 nM
Efficacy [3]: 61.7%
Efficacy [4]: 61.4%
Emax [5]: 0%
remaining at 16 h, 80 µM [6]: > 70%
Activity [7]: Active
pEC50 [8]: inactive
SMILES: CC(C)[C@H](NC(=O)[C@@H]1CSSC(C)(C)[C@H](NC(=O)[C@@H](N)CC(=O)O)C(=O)N[C@@H](Cc2ccccc2)C(=O)N[C@H](Cc2c[nH]c3ccccc23)C(=O)N[C@@H](CCCN)C(=O)N[C@@H](Cc2ccc(C#N)cc2)C(=O)N1)C(=O)O
